# Assay results as given in patent publication US20100184812A1, “MUTUAL PRODRUGS AND METHODS TO TREAT CANCER” (UNIVERSITY OF MARYLAND, BALTIMORE, priority 2007, published 2010).
# Entries after “also recorded” stand apart in the source; their conditions may differ. Like-named read-outs stand apart in the source and are kept apart here.
# Key:
# [1] = tested on: PC-3 prostate cancer cells; assay: MTT cell growth inhibition assay, PC-3 cells; type: cell-based, human
# Procedure: PC-3 (androgen receptor negative, AR−ve) cells were obtained from American Type Culture Collection (ATCC, Rockville, Md., USA). Cells were maintained in RPMI 1640 medium (Gibco, Invitrogen, Carlsbad, Calif., USA) supplemented with 10% fetal bovine serum (Atlanta Biologicals, Lawrenceville, Ga., USA) and 1% penicillin/streptomycin. Cells were grown as a monolayer in T75 tissue culture flasks in a humidified incubator (5% CO2, 95% air) at 37° C.
# (§1) PC-3 cells were seeded in 24 well plates (Corning Costar) at a density of 2×10^4 cells per well per 1 mL of medium. Cells were allowed to adhere to the plate for 24 hours and then treated with different concentrations of ATRA, HDIs or mutual prodrugs dissolved in 10% DMSO, 90% ethanol. Cells were treated for five days with renewal of prodrug and media on day 3. On the fifth day, medium was renewed and 100 μL of MTT (3-(4,5-dimethylthiazol-2-yl)-2,5-diphenyl-2H-tetrazolium bromide from Sigma) solution (0.5 mg MTT/mL of media) was added to the medium such that the ratio of MTT:medium was 1:10. The cells were incubated with MTT for 2 hours. The medium was then aspirated and 500 μL of DMSO was added to solubilize the violet MTT-formazan product. The absorbance at 560 nm was measured by spectrophotometry (Victor 1420 multilabel counted, Wallac). For each concentration of agent or mutual prodrugs there were triplicate wells in each independent experiment. GI50 values were calculated by nonlinear regression analysis using GraphPad Prism software.
# (§2) The MTT (3-[4,5-dimethylthiazol-2-yl]-2,5-diphenyltetrazolium bromide) assay was used to measure the cell viability. PC-3 cells or MDA-MB-231 cells (1.0×10^3 cells/ml) were seeded into 96 well plates. Cells were treated with the compounds on day 2 at different concentrations. On the 5th day, the medium was removed and […] of a 0.5 mg/ml MTT solution was added to each well. The plates were incubated at 37° C. for 2 hours and 200 μL of DMSO was added. The yellow tetrazolium salt (MTT) is reduced to a purple formazan product by the mitochondrial dehydrogenase from living cells. The product is then detected by spectrophotometry at 560 nm.
# To assess the effect of mutual prodrugs on cell growth, PC-3 and MDA-MB-231 cells were treated with mutual prodrugs for […], respectively. […] In this cell line, the order of potency was VNLG/66>VNLG/114>VNLG/122>VNLG/124>VNLG/60. The efficacies of mutual prodrugs were compared to the efficacies of ATRA or HDIs alone in PC-3 prostate cancer cells. […] The reason(s) for these differential potencies of the different mutual prodrugs in PC-3 cells are unknown at this time, but may be idiosyncratic, possibly due to extents and efficiencies of cell membrane penetration and/or intracellular cleavage of mutual prodrugs.
# [2] = tested on: MDA-MB-231 breast cancer cells; assay: MTT colorimetric cell viability assay, MDA-MB-231 cells; type: cell-based
# Procedure: (§3) Other cell lines used in this study include, MDA-MB-231 (estrogen receptor negative, ER−ve), MCF-7 (ER+ve) were also purchased from ATCC and were cultured as previously described.^44, 45 LTLC and LTLT-Ca were kindly provided by Dr. Angela Brodie, University of Maryland, Baltimore, and details of their phenotypes and culturing conditions are as previously reported.^46, 47 MCF-7TAM and MCF-7HoxB-7 were provided by Dr. Sara Sukumar of Johns Hopkins University, Baltimore, and details of their phenotypes and culturing conditions are as previously reported.^48 Except for MCF-7 breast cancer cell all other breast cancer cells used in this study are insensitive to endocrine therapeutic agents and to most anti-cancer agents.
# as §2, with “viability.” for “viability. PC-3 cells or”, “compound” for “compounds”
# as §2
# MCF-7 = assay: MTT cell growth inhibition, MCF-7 cells; type: cell-based
# Procedure: as §3, §1
# (§4) Given the potency of most of the mutual prodrugs of the present invention, in MDA-MB-231 and PC-3 cell lines, their effects on the growth of some known drug-resistant breast cancer cell lines, including MCF-7TAMR, MCF-7Hox-B7, LTLC and LTLT-Ca was tested compared to parental MCF-7 cells.
# MCF-7TAMR = assay: MTT cell growth inhibition, MCF-7TAMR cells; type: cell-based
# Procedure: as §3, §1, §4
# MCF-7HOX-B7 = assay: MTT cell growth inhibition, MCF-7HOX-B7 cells; type: cell-based
# Procedure: as §3, §1, §4
# LTLC = assay: MTT cell growth inhibition, LTLC cells; type: cell-based
# Procedure: as §3
# (§5) PC-3 cells were seeded in 24 well plates (Corning Costar) at a density of 2×10^4 cells per well per 1 mL of medium. Cells were allowed to adhere to the plate for 24 hours and then treated with different concentrations of ATRA, HDIs or mutual prodrugs dissolved in 10% DMSO, 90% ethanol. Cells were treated for five days with renewal of prodrug and media on day 3. […] The absorbance at 560 nm was measured by spectrophotometry (Victor 1420 multilabel counted, Wallac). […] GI50 values were calculated by nonlinear regression analysis using GraphPad Prism software. […]
# LTLT-Ca = assay: MTT cell growth inhibition, LTLT-Ca cells; type: cell-based
# Procedure: as §3, §5
# [3] = pH 7.2
# Procedure: Plasma was obtained by centrifugation of blood samples (obtained from mice) containing 0.25% heparin. 0.8 ml of plasma was mixed with 0.2 ml of phosphate buffer (pH 7.2). Incubations were performed at 37° C.+/−0.5° C. using shaking water bath. The reaction was initiated by adding 25 μl of stock solution of mutual prodrugs (1 mg/ml) to preheated plasma and aliquots were taken at different time interval and extracted using solid phase extraction with C18 Bond Elut columns. HPLC analysis of the extracted samples were performed using a multi-linear gradient solvent system, (i) 20 mM aq. CH3COONH4 buffer/CH3OH(50:50), (100% to 0%) and (ii) CH3OH(100%), (0% to 100%) at a flow rate of 0.8 ml/min.
# Plasma was obtained by centrifugation of blood samples containing 0.25% heparin. 0.8 ml of plasma was mixed with 0.2 ml of phosphate buffer (pH 7.2). Incubations were performed at 37° C.±0.5° C. using shaking water bath. […]
# HPLC methods were developed to briefly study the cleavage of compounds VNLG/60, VNLG/66, VNLG/114,VNLG/122 and VNLG/124, in fresh mouse plasma. […] Furthermore, the stability of mutual prodrugs was studied in 0.02 M phosphate buffer (pH=7.2) and also in 80% human serum (obtained from Sigma) containing 20% 0.02 M phosphate buffer as previously described.^41 The mutual prodrugs were each incubated at 37° C. for 24 h, extracted and analyzed by HPLC.
# [4] = Homo sapiens, PC-3, dose-response curves, at least three independent experiments, SEM < 10%, read-out: GI50 Values, PC-3 prostate cancer cells
# [5] = Homo sapiens, MDA-MB-231, dose-response curves, at least three independent experiments, SEM < 10%, read-out: GI50 Values, MDA-MB-231 breast cancer cells
# [6] = Homo sapiens, MDA-MB-231, read-out: GI50, MDA-MB-231 cells
# [7] = PC-3, dose-response curves, at least three independent experiments, SEM < 10%, read-out: GI50 Values, PC-3 prostate cancer cells
# [8] = MDA-MB-231, dose-response curves, at least three independent experiments, SEM < 10%, read-out: GI50 Values, MDA-MB-231 breast cancer cells
# [9] = MDA-MB-231, read-out: GI50, MDA-MB-231 cells
molecule,measurement,setting,value
"CC1=C(/C=C/C(C)=C/C=C/C(C)=C/C(=O)O)C(C)(C)CCC1 [ATRA, all-trans retinoic acid, reference compound]",GI50,[1]; [4],7600 nM
same,GI50,[2]; [5],10.8 µM
"CC(=O)Nc1ccc(C(=O)Nc2ccccc2N)cc1 [CI-994, N-(2′-aminophenyl)-4-acetylaminobenzamide, reference compound]",GI50,[1]; [4],290 nM
same,GI50,[2]; [5],0.17 µM
"Nc1ccccc1NC(=O)c1ccc(CNC(=O)OCc2cccnc2)cc1 [MS-275, N-(2-aminophenyl)4-[N-(pyridine-3-yl-methoxy-carbonyl)aminomethyl]benzamide, reference compound]",GI50,"[1]; Homo sapiens, PC-3, read-out: GI50, PC-3 cells",190 nM
same,GI50,[1]; [4],190 nM
same,GI50,[2]; [5],0.009 µM
"CCCC(=O)[O-].[Na+] [Sodium butyrate (BA), Sodium butyrate, reference compound]",GI50,"[1]; Homo sapiens, PC-3, read-out: GI50 Values, PC-3 prostate cancer cells",72400 nM
same,GI50,[2]; [5],> 1000 µM
"CC(=O)Nc1ccc(C(=O)Nc2ccccc2NC(=O)CNC(=O)OCOC(=O)/C=C(C)/C=C/C=C(C)/C=C/C2=C(C)CCCC2(C)C)cc1 [VNLG/60, (N-{[N-(2-{[4-(Acetylamino)phenyl]carbonylamino}phenyl)carbamoyl]methyl}carbamoyloxy)methyl(2E,4E,6E,8E)-3,7-dimethyl-9-(2,6,6-trimethylcyclohex-1-enyl)nona-2,4,6,8-tetraenoate]",GI50,[1]; [4],4270 nM
same,GI50,[2]; [6],0.63 µM
same,GI50,"[2]; Homo sapiens, MDA-MB-231, MTT assay, FIG. 1C, read-out: GI50, MDA-MB-231 (FIG. 1C)",4.3 µM
same,GI50,[2]; [5],0.63 µM
same,growth inhibitory effect versus parent drugs alone or in combination,[2]; MDA-MB-231,synergistic growth inhibitory effect
same,GI50,"MCF-7; Homo sapiens, MCF7",250 nM
same,GI50,MCF-7TAMR,170 nM
same,GI50,MCF-7HOX-B7,1200 nM
"CC1=C(/C=C/C(C)=C/C=C/C(C)=C/C(=O)Oc2ccc(COC(=O)Nc3ccccc3NC(=O)c3ccc(NCC(=O)OCc4cccnc4)cc3)cc2)C(C)(C)CCC1 [VNLG/114, 4-{[N-(2-{[4-({[(3-Pyridylmethyl)oxycarbonyl]methyl}amino)phenyl]carbonylamino}phenyl)carbamoyloxy]methyl}phenyl(2E,4E,6E,8E)-3,7-dimethyl-9-(2,6,6-trimethylcyclohex-1-enyl)nona-2,4,6,8-tetraenoate]",GI50,[1]; [4],180 nM
same,GI50,[2]; [5],0.17 µM
same,growth inhibitory effect versus parent drugs alone or in combination,[2]; MDA-MB-231,synergistic growth inhibitory effect; also recorded: significant increase
same,GI50,"MCF-7; Homo sapiens, MCF7",60 nM
same,GI50,MCF-7TAMR,210 nM
same,GI50,MCF-7HOX-B7,720 nM
same,melting point,,128 to 130 °C
"CC(=O)Nc1ccc(C(=O)Nc2ccccc2NC(=O)OCc2ccc(OC(=O)/C=C(C)/C=C/C=C(C)/C=C/C3=C(C)CCCC3(C)C)cc2)cc1 [VNLG/122, 4-{[N-2-{[4-(Acetylamino)phenyl]carbonylamino}phenyl0carbamoyloxy]methyl}phenyl(2E,4E,6E,8E) -3,7-dimethyl-9-(2,6,6-trimethylcyclohex-1-enyl)nona-2,4,6,8-tetraenoate]",GI50,[1]; [7],870 nM
same,GI50 fold difference to VNLG/60,[2]; MDA-MB-231,31.5 fold
same,GI50 fold lower than ATRA,[2]; MDA-MB-231,543 fold
same,GI50 fold lower than CI-994,[2]; MDA-MB-231,8.5 fold
same,GI50,[2]; [8],0.02 µM
same,GI50,[2]; [9],0.02 µM
same,GI50,MCF-7; MCF-7,520 nM
same,GI50,MCF-7TAMR; MCF-7TAMR,80 nM
same,GI50,MCF-7HOX-B7; MCF-7HOX-B7,8130 nM
"CCCC(=O)OCc1ccc(OC(=O)/C=C(C)/C=C/C=C(C)/C=C/C2=C(C)CCCC2(C)C)cc1 [VNLG/124, 4-(Butanoyloxymethyl)phenyl(2E,4E,6E,8E)-3,7-dimethyl-9-(2,6,6-trimethylcyclohex-1-enyl)nona-2,4,6,8-tetraenoate]",inhibition at 20 µM,"[1]; Homo sapiens, PC-3, 20 μM, FIG. 8",~80%
same,GI50,"[1]; Homo sapiens, PC-3, FIG. 9, combination = increasing ATRA with BA 10.0 μM, read-out: GI50, PC-3 dose-response curves (FIG. 9)",1700 nM
same,GI50,[1]; [4],1020 nM
same,growth inhibitory effect versus parent drugs alone or in combination,[1]; PC3,significant increase
same,GI50 fold lower than the combination of ATRA and BA,"[1]; PC-3, FIG. 9",15 fold
same,GI50,[2]; [6],0.01 µM
same,GI50,"[2]; Homo sapiens, MDA-MB-231, head-to-head with 3, FIG. 7, read-out: GI50 for inhibition of growth of MDA-MB-231 cells, head-to-head (FIG. 7)",0.048 µM
same,GI50,[2]; [5],0.01 µM
same,GI50 fold lower than ATRA,[2]; MDA-MB-231,1085 fold
same,GI50 fold lower than BA,[2]; MDA-MB-231,"over 100,000 fold"
same,growth inhibitory effect versus parent drugs alone or in combination,[2]; MDA-MB-231,significant increase
same,GI50 fold lower than that of 3,"[2]; MDA-MB-231, FIG. 7",25 fold
"CCCC(=O)OCOC(=O)C=C(C)C=CC=C(C)C=CC1=C(C)CCCC1(C)C [compound 3, retinoyloxymethyl butyrate, reference compound]",GI50,"[2]; MDA-MB-231, head-to-head with VNLG/124, FIG. 7, read-out: GI50 for inhibition of growth of MDA-MB-231 cells, head-to-head (FIG. 7)",1.18 µM
"CC1=C(/C=C/C(C)=C/C=C/C(C)=C/C(=O)Oc2ccc(CO)cc2)C(C)(C)CCC1 [compound 16, 4-(Hydroxymethyl)phenyl(2E,4E,6E,8E)-3,7-dimethyl-9-(2,6,6-trimethylcyclohex-1-enyl)nona-2,4,6,8-tetraenoate]",GI50,[1]; [4],1020 nM
same,GI50 fold lower than that of butyric acid (BA),[1]; PC-3,74 fold
"{N-[N-{2-[4-{[3-Pyridylmethoxy)carbonyamino]methyl}phenyl)carbonylamino]phenyl}carbamoyl carbamoyloxy}methyl(2E,4E,6E,8E)-3,7-dimethyl-9-(2,6,6-trimethylcyclohex-1-enyl)nona-2,4,6,8-tetraenoate [VNLG/66]",GI50 fold lower than 2 (MS-275),[1]; PC-3,4.75 fold
same,GI50,[1]; [7],40 nM
same,GI50,"[1]; PC-3, read-out: GI50, PC-3 cells",40 nM
same,GI50,[2]; [8],0.94 µM
same,GI50,[2]; [9],0.94 µM
same,GI50,MCF-7; MCF-7,150 nM
same,GI50,LTLC,20 nM
same,GI50,LTLT-Ca,650 nM
same,GI50,MCF-7TAMR; MCF-7TAMR,20 nM
same,GI50,MCF-7HOX-B7; MCF-7HOX-B7,6 nM
same,hydrolysis of mutual prodrug in plasma,[3],no mutual Prodrug after one hour
